# In ChEMBL document CHEMBL5523721, “Derivatives of D(-) glutamine-based MMP-2 inhibitors as an effective remedy for the management of chronic myeloid leukemia-Part-I: Synthesis, biological screening and in silico binding interaction analysis” (Eur J Med Chem, 2024):
# The source made the active and inactive calls. No cut-off for these calls is given here.
# Assays:
# U-87 MG = test: Antiproliferative activity against human U-87 MG cells incubated for 72 hrs by MTT assay
# [1] = Cytotoxicity against HEK293 cells incubated for 72 hrs by MTT assay; assay type: toxicity, cell-based; details: human
# A549 = test: cells; details: Homo sapiens, A549, 72 h
# Description: Antiproliferative activity against human A549 cells incubated for 72 hrs by MTT assay
# K562 [2] = test: Antiproliferative activity against human K562 cells incubated for 72 hrs by PrestoBlue assay; details: K562, 72 h
# HT-1080 = test: Antiproliferative activity against human HT-1080 cells incubated for 72 hrs by MTT assay; details: HT-1080, 72 h
# ACHN [3] = test: Antiangiogenic activity in human ACHN cells assessed as reduction in branch length at 26.764 uM incubated for 72 hrs by microscopic analysis; assay type: functional, cell-based
# K562 [4] = test: Induction of cell cycle arrest in human K562 cells assessed as cell population at G2/M phase at 4.919 uM incubated for 72 hrs by propidium iodide staining based flow cytometry analysis (reference value: 22.9 +/- 1.9%); assay type: functional
# K562 [5] = test: Induction of cell cycle arrest in human K562 cells assessed as cell population at S phase at 4.919 uM incubated for 72 hrs by propidium iodide staining based flow cytometry analysis (reference value: 32.7 +/- 3.1%); assay type: functional
# Neutrophil collagenase = Neutrophil collagenase (Homo sapiens, UniProt P22894); test: Inhibition of MMP-8 (unknown origin)
# K562 [6] = test: Induction of cell cycle arrest in human K562 cells assessed as cell population at G1 phase at 4.919 uM incubated for 72 hrs by propidium iodide staining based flow cytometry analysis (reference value: 44.4 +/- 1.5%); assay type: functional
# K562 [7] = test: Induction of cell cycle arrest in human K562 cells assessed as cell population at sub-G1 phase at 4.919 uM incubated for 72 hrs by propidium iodide staining based flow cytometry analysis; assay type: functional
# ACHN [8] = test: Antiangiogenic activity in human ACHN cells assessed as reduction in total segment length at 26.764 uM incubated for 72 hrs by microscopic analysis; assay type: functional, cell-based
# [9] = biological target: 72 kDa type IV collagenase (Homo sapiens, UniProt P08253); test: Inhibition of MMP-2 (unknown origin) using chromogenic substrate incubated for 1 hr by microplate photometer analysis
# ACHN [10] = test: Antiangiogenic activity in human ACHN cells assessed as reduction in total tube length at 26.764 uM incubated for 72 hrs by microscopic analysis; assay type: functional, cell-based
# ACHN [11] = test: Antiangiogenic activity in human ACHN cells assessed as reduction in mesh length at 26.764 uM incubated for 72 hrs by microscopic analysis; assay type: functional, cell-based
# K562 [12] = test: Induction of apoptosis in human K562 cells assessed as total apoptotic cells at 4.919 uM incubated for 72 hrs by Annexin-V/PI staining based flow cytometry analysis (reference value: 2.6 +/- 1.1%); assay type: functional
# [13] = biological target: Matrix metalloproteinase-9 (Homo sapiens, UniProt P14780); test: Inhibition of MMP-9 (unknown origin) using chromogenic substrate incubated for 1 hr by microplate photometer analysis
# ACHN [14] = test: Antiproliferative activity against human ACHN cells incubated for 72 hrs by MTT assay
# [15] = biological target: Macrophage metalloelastase (Homo sapiens, UniProt P39900); test: Inhibition of MMP-12 (unknown origin)
# [16] = Downregulation of MMP-2 expression in human K562 cells at 4.919 uM incubated for 48 hrs by flow cytometry analysis; assay type: functional
# K562 [17] = test: Induction of apoptosis in human K562 cells assessed as increase in late apoptotic cells at 1.992 uM after 48 hrs by AO/EB staining based fluorescence microscopic analysis; assay type: functional, cell-based
# K562 [18] = test: Induction of cell cycle arrest in human K562 cells assessed as cell population at G1 phase at 1.992 uM incubated for 72 hrs by propidium iodide staining based flow cytometry analysis (reference value: 44.4 +/- 1.5%); assay type: functional
# K562 [19] = test: Induction of apoptosis in human K562 cells assessed as morphological changes at 1.992 uM after 72 hrs by AO/EB staining based fluorescence microscopic analysis; assay type: functional, cell-based
# K562 [20] = test: Induction of apoptosis in human K562 cells assessed as increase in necrotic cells at 1.992 uM after 72 hrs by AO/EB staining based fluorescence microscopic analysis; assay type: functional, cell-based
# K562 [21] = test: Induction of apoptosis in human K562 cells assessed as increase in early apoptotic cells at 1.992 uM after 24 hrs by AO/EB staining based fluorescence microscopic analysis; assay type: functional, cell-based
# K562 [22] = test: Induction of cell cycle arrest in human K562 cells assessed as cell population at S phase at 1.992 uM incubated for 72 hrs by propidium iodide staining based flow cytometry analysis (reference value: 32.7 +/- 3.1%); assay type: functional
# K562 [23] = test: Induction of apoptosis in human K562 cells assessed as increase in late apoptotic dead cells at 1.992 uM after 72 hrs by AO/EB staining based fluorescence microscopic analysis; assay type: functional, cell-based
# K562 [24] = test: Induction of apoptosis in human K562 cells assessed as appearance of apoptotic cells at 1.992 uM after 24 to 72 hrs by AO/EB staining based fluorescence microscopic analysis; assay type: functional, cell-based; details: time 24-72 hrs
# ACHN [25] = test: Antiangiogenic activity in human ACHN cells assessed as reduction in total segment length at 17.157 uM incubated for 72 hrs by microscopic analysis; assay type: functional, cell-based
# ACHN [26] = test: Antiangiogenic activity in human ACHN cells assessed as reduction in mesh length at 17.157 uM incubated for 72 hrs by microscopic analysis; assay type: functional, cell-based
# K562 [27] = test: Induction of cell cycle arrest in human K562 cells assessed as cell population at sub-G1 phase at 1.992 uM incubated for 72 hrs by propidium iodide staining based flow cytometry analysis; assay type: functional
# K562 [28] = test: Induction of cell cycle arrest in human K562 cells assessed as cell population at G2/M phase at 1.992 uM incubated for 72 hrs by propidium iodide staining based flow cytometry analysis (reference value: 22.9 +/- 1.9%); assay type: functional
# ACHN [29] = test: Antiangiogenic activity in human ACHN cells assessed as reduction in total tube length at 17.157 uM incubated for 72 hrs by microscopic analysis; assay type: functional, cell-based
# K562 [30] = test: Induction of apoptosis in human K562 cells assessed as total apoptotic cells at 1.992 uM incubated for 72 hrs by Annexin-V/PI staining based flow cytometry analysis (reference value: 2.6 +/- 1.1%); assay type: functional
# K562 [31] = test: Induction of apoptosis in human K562 cells at 1.992 uM by AO/EB staining based fluorescence microscopic analysis; assay type: functional, cell-based; details: time 24-72 hrs, TDE = time-dependent effect
# [32] = Downregulation of MMP-2 expression in human K562 cells at 1.992 uM incubated for 48 hrs by flow cytometry analysis; assay type: functional
# K562 [33] = test: Induction of apoptosis in human K562 cells assessed as appearance of nucleus with fragmented DNA at 1.992 uM after 72 hrs by AO/EB staining based fluorescence microscopic analysis; assay type: functional, cell-based
# ACHN [34] = test: Antiangiogenic activity in human ACHN cells assessed as reduction in branch length at 17.157 uM incubated for 72 hrs by microscopic analysis; assay type: functional, cell-based
# K562 [35] = test: Antiproliferative activity against human K562 cells; assay type: functional, cell-based
# Sequence of Neutrophil collagenase (P22894 whole entry): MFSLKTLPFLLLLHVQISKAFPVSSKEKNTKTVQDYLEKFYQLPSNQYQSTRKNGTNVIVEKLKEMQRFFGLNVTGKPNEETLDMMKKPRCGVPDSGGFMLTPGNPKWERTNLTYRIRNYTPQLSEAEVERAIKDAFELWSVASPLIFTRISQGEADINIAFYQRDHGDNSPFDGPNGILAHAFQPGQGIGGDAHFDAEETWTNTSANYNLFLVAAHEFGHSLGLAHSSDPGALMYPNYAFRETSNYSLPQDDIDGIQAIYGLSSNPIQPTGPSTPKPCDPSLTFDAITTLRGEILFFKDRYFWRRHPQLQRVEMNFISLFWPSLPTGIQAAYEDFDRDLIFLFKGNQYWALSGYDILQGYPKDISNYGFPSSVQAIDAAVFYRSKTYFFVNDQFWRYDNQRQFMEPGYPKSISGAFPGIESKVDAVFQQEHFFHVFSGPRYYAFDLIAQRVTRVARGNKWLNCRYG
# Sequence of Matrix metalloproteinase-9 (P14780 whole entry): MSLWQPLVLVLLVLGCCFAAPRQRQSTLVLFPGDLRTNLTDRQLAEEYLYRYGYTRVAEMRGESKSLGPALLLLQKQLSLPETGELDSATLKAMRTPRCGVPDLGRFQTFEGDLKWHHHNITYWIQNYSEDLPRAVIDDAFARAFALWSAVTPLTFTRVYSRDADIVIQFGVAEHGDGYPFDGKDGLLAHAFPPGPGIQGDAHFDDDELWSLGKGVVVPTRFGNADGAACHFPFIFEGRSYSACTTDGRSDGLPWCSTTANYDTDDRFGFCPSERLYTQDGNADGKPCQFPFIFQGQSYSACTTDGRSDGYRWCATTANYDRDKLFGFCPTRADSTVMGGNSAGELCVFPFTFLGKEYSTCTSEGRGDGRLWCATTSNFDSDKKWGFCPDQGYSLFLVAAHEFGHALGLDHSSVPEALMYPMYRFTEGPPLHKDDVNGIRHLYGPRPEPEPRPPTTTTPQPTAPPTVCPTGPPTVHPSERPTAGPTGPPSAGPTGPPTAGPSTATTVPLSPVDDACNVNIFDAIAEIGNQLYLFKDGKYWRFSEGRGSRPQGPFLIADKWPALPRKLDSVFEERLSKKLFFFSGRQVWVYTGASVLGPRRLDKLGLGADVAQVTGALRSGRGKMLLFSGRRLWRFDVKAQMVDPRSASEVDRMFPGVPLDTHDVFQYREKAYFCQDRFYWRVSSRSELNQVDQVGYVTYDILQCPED
# Sequence of Macrophage metalloelastase (P39900 whole entry): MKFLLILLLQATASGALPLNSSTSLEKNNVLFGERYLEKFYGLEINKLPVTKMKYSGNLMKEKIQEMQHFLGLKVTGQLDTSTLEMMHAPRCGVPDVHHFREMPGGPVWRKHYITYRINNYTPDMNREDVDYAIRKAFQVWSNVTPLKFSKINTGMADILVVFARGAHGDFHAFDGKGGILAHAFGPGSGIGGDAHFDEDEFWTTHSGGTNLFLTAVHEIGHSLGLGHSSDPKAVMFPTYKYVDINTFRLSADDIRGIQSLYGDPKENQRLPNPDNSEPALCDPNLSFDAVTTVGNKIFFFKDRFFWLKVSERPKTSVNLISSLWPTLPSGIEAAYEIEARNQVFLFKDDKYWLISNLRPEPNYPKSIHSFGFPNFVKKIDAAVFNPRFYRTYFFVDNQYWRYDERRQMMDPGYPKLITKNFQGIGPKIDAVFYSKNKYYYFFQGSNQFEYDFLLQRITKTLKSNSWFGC
# Sequence of 72 kDa type IV collagenase (P08253 whole entry): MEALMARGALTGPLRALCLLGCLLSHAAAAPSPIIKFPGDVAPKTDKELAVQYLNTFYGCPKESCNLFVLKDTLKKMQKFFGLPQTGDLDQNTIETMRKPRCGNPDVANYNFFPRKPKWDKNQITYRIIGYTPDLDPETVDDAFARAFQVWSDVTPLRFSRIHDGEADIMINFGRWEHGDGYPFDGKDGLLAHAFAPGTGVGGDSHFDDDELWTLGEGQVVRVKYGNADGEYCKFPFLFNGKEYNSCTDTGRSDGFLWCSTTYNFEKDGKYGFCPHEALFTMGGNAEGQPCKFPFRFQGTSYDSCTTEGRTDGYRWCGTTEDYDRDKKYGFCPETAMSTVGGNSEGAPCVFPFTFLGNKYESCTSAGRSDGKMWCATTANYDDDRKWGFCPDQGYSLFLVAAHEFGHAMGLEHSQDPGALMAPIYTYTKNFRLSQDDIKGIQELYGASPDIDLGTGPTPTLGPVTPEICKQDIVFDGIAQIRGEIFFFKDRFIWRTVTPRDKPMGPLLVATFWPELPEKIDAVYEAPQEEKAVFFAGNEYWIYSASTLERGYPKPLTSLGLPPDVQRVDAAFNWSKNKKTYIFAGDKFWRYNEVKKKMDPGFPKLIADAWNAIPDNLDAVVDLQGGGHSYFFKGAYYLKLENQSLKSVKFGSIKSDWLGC
compound,measurement,setting,value
CNC(=O)CC[C@@H](NS(=O)(=O)c1ccc(C)cc1)C(=O)O,IC50,U-87 MG,28.9 µM
same,IC50 at 72 h,[1],203 µM
same,IC50,A549,5.14 µM
same,IC50,K562 [2],2.37 µM
same,IC50,HT-1080,25.2 µM
Cc1ccc(S(=O)(=O)N[C@H](CCC(=O)NC(C)C)C(=O)O)cc1,IC50,U-87 MG,20.3 µM
same,IC50 at 72 h,[1],347 µM
same,IC50,A549,17.3 µM
same,IC50,K562 [2],4.24 µM
same,IC50,HT-1080,19.5 µM
CNC(=O)CC[C@@H](NS(=O)(=O)c1ccc([N+](=O)[O-])cc1)C(=O)O,IC50,U-87 MG,20.5 µM
same,IC50 at 72 h,[1],417 µM
same,IC50,A549,20.8 µM
same,IC50,K562 [2],5.69 µM
same,IC50,HT-1080,24.4 µM
CCNC(=O)CC[C@@H](NS(=O)(=O)c1ccc([N+](=O)[O-])cc1)C(=O)O,IC50,U-87 MG,16.2 µM
same,IC50 at 72 h,[1],145 µM
same,IC50,A549,12.2 µM
same,IC50,K562 [2],7.76 µM
same,IC50,HT-1080,32.9 µM
NC(=O)CC[C@@H](NS(=O)(=O)c1ccc([N+](=O)[O-])cc1)C(=O)O,IC50,U-87 MG,26.4 µM
same,IC50 at 72 h,[1],173 µM
same,IC50,A549,8.99 µM
same,IC50,K562 [2],9.73 µM
same,IC50,HT-1080,20.5 µM
COc1ccc(S(=O)(=O)N(CC(=O)NO)CC(C)C)cc1,IC50,A549,13.5 µM
same,IC50,K562 [2],4.77 µM
CC(C)NC(=O)CC[C@@H](NS(=O)(=O)c1ccc([N+](=O)[O-])cc1)C(=O)O,IC50,U-87 MG,37.5 µM
same,IC50 at 72 h,[1],271 µM
same,IC50,A549,10.6 µM
same,IC50,K562 [2],11 µM
same,IC50,HT-1080,43.5 µM
O=C(CC[C@@H](NS(=O)(=O)c1ccc([N+](=O)[O-])cc1)C(=O)O)NCc1ccccc1,Activity,ACHN [3],Active
same,Activity,K562 [4],17.4%
same,Activity,K562 [5],33.6%
same,IC50,Neutrophil collagenase,> 2 µM
same,Activity,K562 [6],49%
same,IC50,U-87 MG,17.9 µM
same,Activity,K562 [7],4.6%
same,Activity,ACHN [8],Active
same,IC50,[9],0.273 µM
same,Activity,ACHN [10],Active
same,IC50 at 72 h,[1],114 µM
same,IC50,A549,5.68 µM
same,Activity,ACHN [11],Active
same,IC50,K562 [2],4.91 µM
same,Activity,K562 [12],26.7%
same,IC50,[13],0.561 µM
same,IC50,ACHN [14],26.8 µM
same,IC50,[15],1.72 µM
same,IC50,HT-1080,57.5 µM
same,Activity,[16],19.6%
Cc1ccc(S(=O)(=O)N[C@H](CCC(=O)NCc2ccccc2)C(=O)O)cc1,Activity,K562 [17],Active
same,Activity,K562 [18],56.4%
same,Activity,K562 [19],inactive
same,Activity,K562 [20],Active
same,IC50,Neutrophil collagenase,> 2 µM
same,Activity,K562 [21],Active
same,Activity,K562 [22],29.1%
same,IC50,U-87 MG,17.5 µM
same,Activity,K562 [23],Active
same,IC50 at 72 h,[1],293 µM
same,Activity,K562 [24],Active
same,IC50,A549,3.57 µM
same,Activity,ACHN [25],Active
same,Activity,ACHN [26],Active
same,Activity,K562 [27],12%
same,IC50,K562 [2],1.99 µM
same,Activity,K562 [28],14.7%
same,Activity,ACHN [29],Active
same,Activity,K562 [30],39.7%
same,Activity,K562 [31],Tde
same,Activity,[32],20.1%
same,IC50,ACHN [14],17.2 µM
same,IC50,[15],1.24 µM
same,IC50,HT-1080,19.7 µM
same,Activity,K562 [33],inactive
same,Activity,ACHN [34],Active
CCCCNC(=O)CC[C@@H](NS(=O)(=O)c1ccc([N+](=O)[O-])cc1)C(=O)O,IC50,Neutrophil collagenase,> 2 µM
same,IC50,U-87 MG,29 µM
same,IC50,[9],0.456 µM
same,IC50 at 72 h,[1],368 µM
same,IC50,A549,18.4 µM
same,IC50,[13],0.833 µM
same,IC50,K562 [35],5.26 µM
same,IC50,HT-1080,37.6 µM
CC(C)CNC(=O)CC[C@@H](NS(=O)(=O)c1ccc([N+](=O)[O-])cc1)C(=O)O,IC50,U-87 MG,38.5 µM
same,IC50 at 72 h,[1],217 µM
same,IC50,A549,10.8 µM
same,IC50,K562 [2],8.06 µM
same,IC50,HT-1080,16.2 µM
CCCCNC(=O)CC[C@@H](NS(=O)(=O)c1ccc(C)cc1)C(=O)O,IC50,U-87 MG,16.8 µM
same,IC50 at 72 h,[1],391 µM
same,IC50,A549,19.5 µM
same,IC50,K562 [2],3.75 µM
same,IC50,HT-1080,25.9 µM
Cc1ccc(S(=O)(=O)N[C@H](CCC(N)=O)C(=O)O)cc1,IC50,U-87 MG,19.9 µM
same,IC50 at 72 h,[1],279 µM
same,IC50,A549,8.98 µM
same,IC50,K562 [2],2.27 µM
same,IC50,HT-1080,18.3 µM
Cc1ccc(S(=O)(=O)N[C@H](CCC(=O)NCC(C)C)C(=O)O)cc1,IC50,Neutrophil collagenase,> 2 µM
same,IC50,U-87 MG,26.3 µM
same,IC50 at 72 h,[1],645 µM
same,IC50,A549,32.2 µM
same,IC50,K562 [2],2.35 µM
same,IC50,HT-1080,39.2 µM
CCCCCNC(=O)CC[C@@H](NS(=O)(=O)c1ccc(C)cc1)C(=O)O,IC50,U-87 MG,33.1 µM
same,IC50 at 72 h,[1],408 µM
same,IC50,A549,14.4 µM
same,IC50,K562 [2],8.37 µM
same,IC50,HT-1080,27.6 µM
CCNC(=O)CC[C@@H](NS(=O)(=O)c1ccc(C)cc1)C(=O)O,IC50,U-87 MG,32.3 µM
same,IC50 at 72 h,[1],491 µM
same,IC50,A549,4.82 µM
same,IC50,K562 [2],2.54 µM
same,IC50,HT-1080,16.5 µM
CCCCCNC(=O)CC[C@@H](NS(=O)(=O)c1ccc([N+](=O)[O-])cc1)C(=O)O,IC50,U-87 MG,14.2 µM
same,IC50 at 72 h,[1],254 µM
same,IC50,A549,12.7 µM
same,IC50,K562 [35],6.79 µM
same,IC50,HT-1080,20.7 µM
